Laboratory results: publication PMC7667655, “Targeted Covalent Inhibition of Plasmodium FK506 Binding Protein 35” (ACS Medicinal Chemistry Letters, 2020)
≈ marks a conversion by molar mass, not a printed value.

What was measured:
[1] = target: T1, FKBP12 (Homo sapiens, UniProt P62942); experiment: Fluorescence polarization competition, FKBP12; format: binding
T1 construct: 6His-SUMO (N, cleaved yes); made in house; host or cells: E. coli (identical protocol to FBD35, BL21 DE3)

[2] = target: T2, nLuc-tagged full length PfFKBP35 (Plasmodium falciparum, UniProt Q8I4V8); experiment: NanoBRET cellular target engagement, nLuc-FKBP35; format: cell-based
T2 construct: nanoluciferase-tagged (nLuc) full length PfFKBP35 or nLuc-tagged FKBP12; expressed in transfected cells

[3] = target: T3, nLuc-tagged FKBP12 (Homo sapiens, UniProt P62942); experiment: NanoBRET cellular target engagement, nLuc-FKBP12; format: cell-based
T3 construct: full length Plasmodium falciparum FKBP35 and human FKBP12 DNA were; expressed in transfected cells

[4] = tested on: NF54 P. falciparum parasites; experiment: P. falciparum strain NF54 growth-inhibition assay; format: cell-based; settings: Plasmodium falciparum; luciferase reporter NF54 line, 72 h
Method: Figure 6 P. falciparum strain NF54 growth-inhibition assay. […] Proliferation was measured by luminescence after a complete life-cycle and normalized to DMSO (100%) and chloroquine (100 nM, 0%). (B) Structural differences between synthetic ligands and compound IC50s (μM).
Substrate and Extracellular NanoLuc® Inhibitor (Promega, cat. N2160) were diluted at 1:166 and 1:500, respectively, in Opti -MEM I Reduced Serum Media. 25 µL of this solution was added to each well and plate was read immediately using an EnVision Multimode Plate Reader (PerkinElmer). The BRET ratio was calculated using the following formula:
BRET ratio = acceptorsample – acceptorno tracer control donorsample donorno tracer control
NanoBRET Target Engagement Assay (384-well)
HEK293T cells stably expressing either nLuc-FKBP12 or nLuc-FKBP35 were plated at 0.2×10^6 cells/mL in white, clear -bottom 384-well plates (Sigma Aldrich) in Opti -MEM I Reduced Serum Media (ThermoFisher Scientific) using a Mutidrop Combi Reagent Dispenser (ThermoFisher Scientific). Cells were incubated overnight at 37 °C, 5% CO 2. Using a Tecan D300e, the Rap-Gly-BDP tracer was added to cells to 1 µM. Plates were shaken at 700 RPM on an orbital plate shaker and incubated at 37 °C, 5% CO 2 for 10 minutes. Test compounds were added at the indicated concentrations using a Tecan D300e. Plates were shaken at 700 RPM on an orbital plate shaker and incubated at 37 °C, 5% CO 2 for 2 hours. NanoBRET Nano -Glo Substrate and Extracellular NanoLuc® Inhibitor (Promega, cat. N2160) were diluted at 1:166 and 1:500, respectively, in Opti-MEM I Reduced Serum Media. 10 µL of this solution was added to each well and plate was read immediately using an EnVision Multimode Plate Reader (PerkinElmer). The BRET ratio was calculated using the above formula.
Parasite Culture and Inhibition
NF54 P. falciparum parasites constitutively expressing Renilla luciferase (RLuc) and Blasticidin-S deaminase under the PfHsp86 5’ and PfHRP2 3‘ regulatory sequences integrated in the cg6 chromosomal locus 4 were maintained continuous ly in media consisting of human erythrocytes at 2% haematocrit (O+) resuspended in RPMI 1640 (Gibco® 31800022) supplemented with 5% Albumax (Gibco® 11021045; complete medium) and 2.5 µg/mL of Blasticidin (RPI Corp B12150-0.1) in a gas mixture consisting of 5% CO2, 1% O2, and 94% N2 at 37 °C (Trager and Jensen 2005).
Parasitemia was determined every 48 h through microscopic examination of thin blood smears fixed in methanol, stained with 10% Giemsa solution, and sub-cultured to 0.5-1% parasitaemia.
Compound susceptibility assays
(§1) In 96-well round-bottom plates, sorbitol -synchronized cultures of ring-stage NF54 P. falciparum parasites were established in triplicate and treated with varying concentrations of the inhibitors (25-0.0038 μM) serially diluted in complete medium. Parasite proliferation rates were analyzed after 72 h using the Renilla-Glo Luciferase Assay, and luminescence was measured using the GloMax® Discover Microplate Reader. EC 50 values were obtained from corrected dose-response curves using GraphPad Prism (version 5; GraphPad Software). Data represent the mean % luminescence relative to 5% DMSO-treated (vehicle, 100% growth) and 100 nM chloroquine-treated (no growth) controls.
(§2) In black, clear-bottom 96-well plates (No. 3904 Corning Life Sciences), HEK293T cells were plated at 2x10^5 cells/mL in DMEM high glucose, pyruvate media (ThermoFisher Scientific, cat. 11995073) supplemented with 10% FBS and 1% pen -strep (100 μL final volume). Cells were incubated overnight at 37°C, 5% CO2. Using a Tecan D300e digital dispenser, cells were dosed in triplicate […]
concentration, 100 mM stock in DMSO) and Carfilzomib (10 µM to 4.6 nM final concentration, 10 mM stock in DMSO) normalizing DMSO to 0.25%. Cells were then incubated at 37 °C, 5% CO2 for 72 hours. Following incubation, cells were treated with 70 µL CellTiter-Glo® Luminescent Cell […]

[5] = Plasma stability assay, mouse; format: in vitro ADME; settings: percent remaining, 1 µM, 37 °C, 5 hours
Method: as §1, §2
concentration, 100 mM stock in DMSO) and Carfilzomib (10 µM to 4.6 nM final concentration, 10 mM stock in DMSO) normalizing DMSO to 0.25%. Cells were then incubated at 37 °C, 5% CO2 for 72 hours. Following incubation, cells were treated with 70 µL CellTiter-Glo® Luminescent Cell Viability Assay Reagent (Promega, cat. G7570) and incubated in the dark at room temperature for 30 minutes. Plates were read using an EnVision Multimode Plate Reader (PerkinElmer). Cell viability data was normalized to DMSO controls and analyzed in GraphPad Prism 8 by fitting the data to “[Inhibitor] vs. normalized response – variable slope” model to obtain the curves.
Each compound was prepared in duplicate at 1 µM final concentration (0.2% DMSO) in human or mouse plasma (Aldrich). Samples were incubated at 37 °C for 5 hours with mixing at 350 rpm on an orbital shaker. Aliquots of each sample were taken at time zero and following 5 hours. Each sample was quenched by adding acetonitrile in a 3:1 ratio and further diluting with 50 µl of PBS.
After quenching, samples were centrifuged to pellet precipitated partic ulates and an aliquot of supernatant was diluted 1:1 with water. The resulting solution was analyzed by UPLC -MS/MS with compounds detected by MRM detection on a triple quadrupole mass spectrometer. The ratio of compound peak areas at 0 and 5 hours were use d to calculate the percent remaining.

[6] = PBS solubility; settings: pH 7.4

T1 sequence (P62942 whole entry): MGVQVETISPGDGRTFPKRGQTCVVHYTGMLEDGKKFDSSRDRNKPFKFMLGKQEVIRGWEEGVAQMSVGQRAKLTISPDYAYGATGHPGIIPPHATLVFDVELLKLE
T3 sequence (P62942 whole entry): as above
T2 sequence (Q8I4V8 whole entry): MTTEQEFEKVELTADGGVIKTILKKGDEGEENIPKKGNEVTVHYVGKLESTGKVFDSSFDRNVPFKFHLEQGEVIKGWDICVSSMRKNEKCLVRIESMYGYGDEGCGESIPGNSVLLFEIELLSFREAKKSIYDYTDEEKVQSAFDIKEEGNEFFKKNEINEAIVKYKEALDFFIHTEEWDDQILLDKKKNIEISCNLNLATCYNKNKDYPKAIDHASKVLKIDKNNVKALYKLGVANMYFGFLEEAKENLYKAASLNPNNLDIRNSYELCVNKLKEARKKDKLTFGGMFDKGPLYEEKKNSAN

SMILES | IC50 [1] [nM] | IC50 [2] [nM] | IC50 [3] [nM] | IC50 [4] [nM] | Plasma Stability (mouse) [5] [%] | solubility [6] [µM]
CCC(=O)Nc1cccc([C@@H](CCc2ccc(OC)c(OC)c2)OC(=O)[C@@H]2CCCCN2C(=O)C(=O)C(C)(C)CC)c1 [1b] | 58 | 876 | 313 | 1900 | 18 | –
C=CC(=O)OCC(C)(C)C(=O)C(=O)N1CCCC[C@H]1C(=O)O[C@H](CCc1ccc(OC)c(OC)c1)c1ccccc1 [2c] | 166 | 854 | 601 | 13000 | 0 | < 0.1
C=CC(=O)Nc1ccccc1[C@@H](CCc1ccc(OC)c(OC)c1)OC(=O)[C@@H]1CCCCN1C(=O)C(=O)C(C)(C)CC [1c] | 423 | – | – | 1900 | 31 | 3.5 (≈ 2.03 µg/mL)
C=CC(=O)Nc1cccc([C@@H](CCc2ccc(OC)c(OC)c2)OC(=O)[C@@H]2CCCCN2C(=O)C(=O)C(C)(C)CC)c1 [1a] | 132 | 1230 | 481 | 1400 | 48 | 0.31 (≈ 0.179 µg/mL)
